Reference: patent US20030176401A1, “Sodium salt of an azo derivative of 5-aminosalicylic acid” (priority 2000, published 2003)

Experiments:
[1] = Azoreduction after oral administration: distribution of product and UR-12715 in faeces, study in monkeys; assay type: in vivo, Cynomolgus monkeys; settings: for relative percentage of Product (administered compound) found in faeces: 100 mg/kg p.o. (UR-12746 suspension in 0.2% CMC; sodium salt capsules)
Method: (§1) The level of azoreduction has been studied by determining the distribution of UR-12746 and UR-12715 in faeces after the oral administration of UR-12746 and its sodium salt in rats and monkeys.
6 Cynomolgus monkeys were used for this study. Each test product was administered to three monkeys, respectively. UR-12746 was administered as a suspension in 0.2% CMC, at a dose of 100 mg/kg p.o. (1000 mg UR-12746/10 mL of 0.2% CMC), whereas the sodium salt of UR-12746 (polymorph I) was administered as individualized capsules for each animal at a dose of 100 mg/kg p.o.
The monkeys were placed in metabolic cages, so that urine and faeces could be separately collected, and faeces corresponding to the periods 0-24 h, 24-48 h and 48-72 h were collected.
The treatment of the faeces and the determination of the amount of administered product and metabolite present in the samples were carried out following the same procedure described above for the study in rats.
As in the rat study, the azoreduction level was determined from the amounts of product and UR-12715 recovered in faeces.

[2] = Azoreduction after oral administration: distribution of product and UR-12715 in faeces, study in rats; assay type: in vivo, Sprague-Dawley rats; settings: for relative percentage of Product (administered compound) found in faeces: female rats, 50 mg/kg oral, suspension in 0.2% CMC, mean of 3; for azoreduction after oral administration: rats
Method: as §1
For the study in rats, 6 female Sprague-Dawley rats weighing between 169 and 185 g were used. UR-12746 and the sodium salt of UR-12746 (polymorph I) were orally administered to three rats each as a suspension in 0.2% carboxymethylcelulose (CMC), at a dose of 50 mg/kg (100 mg of test compound/10 mL of 0.2% CMC).
The rats were placed in metabolic cages, so that urine and faeces could be separately collected, and faeces were collected during the periods 0-24 h and 24-48 h. The faeces collected in the same period were weighted and crumbled. Water was added (2 mL of water/g of faeces) and the paste obtained was stirred to homogeneity. The total weight of the homogenate was then determined.
An aliquot of this homogenate (about 2 g) was mixed with 4 mL of MeOH, stirred in a Vortex and centrifuged for 10 minutes at 4500 rpm (3000 g). The supernatant was filtered through a 0.45 μm filter, and the concentrations of the administered product and metabolite present in the sample were determined by a HPLC chromatographic method with gradient elution and ultraviolet detection, under the conditions detailed below:
The level of azoreduction was determined from the amounts of product and UR-12715 recovered in faeces. The relative percentage of the amounts corresponding to the product (UR-12746 or sodium salt of UR-12746) and to the metabolite (UR-12715) found in faeces after oral administration are shown in Table 3. Results are given as the mean values.

| Compound | relative percentage of Product (administered compound) found in faeces ([1]; faeces 0-24 h) [%] | relative percentage of Product (administered compound) found in faeces ([1]; faeces 0-72 h) [%] | relative percentage of Product (administered compound) found in faeces ([1]; faeces 24-48 h) [%] | relative percentage of Product (administered compound) found in faeces ([1]; faeces 48-72 h) [%] | azoreduction (metabolization in the colon) after oral administration [1] | relative percentage of Product (administered compound) found in faeces ([2]; faeces 0-24 h) [%] | relative percentage of Product (administered compound) found in faeces ([2]; faeces 0-48 h) [%] | relative percentage of Product (administered compound) found in faeces ([2]; faeces 24-48 h) [%] | azoreduction after oral administration [2] |
| --- | --- | --- | --- | --- | --- | --- | --- | --- | --- |
| Cc1nc2cnccc2n1CC1CCN(C(=O)/C=C(/c2ccccc2)c2ccc(N=Nc3ccc(O)c(C(=O)[O-])c3)cc2)CC1.[Na+] [Sodium salt of UR-12746, sodium salt of (Z)-2-hydroxy-5-[[4-[3-[4-[(2-methyl-1H-imidazo[4,5-c]pyridin-1-yl)methyl]-1-piperidinyl]-3-oxo-1-phenyl-1-propenyl]phenyl]azo]benzoic acid] | 12.6 | 9.7 | 6.5 | 5.0 | around 90% | 21.1 | 20.8 | 12.1 | around 79% |
| Cc1nc2cnccc2n1CC1CCN(C(=O)/C=C(/c2ccccc2)c2ccc(N=Nc3ccc(O)c(C(=O)O)c3)cc2)CC1 [UR-12746, (Z)-2-hydroxy-5-[[4-[3-[4-[(2-methyl-1H-imidazo[4,5-c]pyridin-1-yl)methyl]-1-piperidinyl]-3-oxo-1-phenyl-1-propenyl]phenyl]azo]benzoic acid] | >99 | >99 | >99 | >99 | no azoreduction | 78.8 | 76.1 | 52.5 | 24% |
